Data taken from PubChem BioAssay AID1195 (EPA DSSTox, 2008).

Tested on: human maximum recommended daily dose, FDA database
Test: DSSTox (FDAMDD) FDA Maximum (Recommended) Daily Dose Database
Conditions: stronger effect = lower value
Method in brief: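 MRDD values come from clinical trials with daily oral dosing, usually for 3–12 months, for the average adult, in mg/day converted to mg/kg-bw/day assuming 60 kg. Antineoplastic mg/m2 doses are divided by 37. Activity score maps log10(1/MRDD mmol) onto 1–100.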

[1] = TherapeuticCategory: antibacterial
[2] = TherapeuticCategory: antihypertensive
[3] = TherapeuticCategory: sedative, hypnotic
[4] = TherapeuticCategory: narcotic analgesic, antitussive

With `CO/N=C(/C(=O)N[C@@H]1C(=O)N2C(C(=O)O)=C(COC(N)=O)CS[C@H]12)c1ccco1` the maximum recommended daily dose (mmol/kg-bw/day) [1] was 0.0394.

With `COc1cc(NS(=O)(=O)c2ccc(N)cc2)nc(C)n1` the maximum recommended daily dose (mmol/kg-bw/day) [1] was 0.113.

Molecule `OC(CCN1CCCCC1)(c1ccccc1)C1CCCCC1` (configuration not stated) has a maximum recommended daily dose (mmol/kg-bw/day) (TherapeuticCategory: anticholinergic, antiparkinsonian) of 0.000829.

`C[C@@H]1C[C@H]2[C@@H]3C[C@H](F)C4=CC(=O)C=C[C@]4(C)[C@H]3[C@@H](O)C[C@]2(C)[C@@]1(O)C(=O)CO` showed a maximum recommended daily dose (mmol/kg-bw/day) (TherapeuticCategory: glucocorticoid) of 0.00102.

Molecule `CN1C(=O)CN=C(c2ccccc2)c2cc(Cl)ccc21` has a maximum recommended daily dose (mmol/kg-bw/day) (TherapeuticCategory: anxiolytic, skeletal muscle relaxant) of 0.00234.

With `Nc1ncnc2c1ncn2[C@@H]1O[C@H](COP(=O)(O)OP(=O)(O)OP(=O)(O)O)[C@@H](O)[C@H]1O` the maximum recommended daily dose (mmol/kg-bw/day) (TherapeuticCategory: coenzyme) was 0.000394.

`CC1=C(C(=O)O)N2C(=O)[C@@H](NC(=O)[C@H](N)c3ccc(O)cc3)[C@H]2SC1` was tested, and the maximum recommended daily dose (mmol/kg-bw/day) [1] was 0.046.

Work on `CCOc1ccc(Cc2nccc3cc(OCC)c(OCC)cc23)cc1OCC` yielded a maximum recommended daily dose (mmol/kg-bw/day) (TherapeuticCategory: antispasmodic) of 0.0253.

Work on `CCN(CC)C(=O)N1CCN(C)CC1` yielded a maximum recommended daily dose (mmol/kg-bw/day) (TherapeuticCategory: anthelmintic) of 0.0301.

In the case of `CN(C)CCOc1ccccc1Cc1ccccc1`, the maximum recommended daily dose (mmol/kg-bw/day) (TherapeuticCategory: antihistaminic) is reported as 0.013.

Work on `COc1ccccc1OCC(O)COC(N)=O` (configuration not stated) yielded a maximum recommended daily dose (mmol/kg-bw/day) (TherapeuticCategory: skeletal muscle relaxant) of 0.415.

Molecule `C[n+]1ccccc1/C=N/O` has a maximum recommended daily dose (mmol/kg-bw/day) (TherapeuticCategory: cholinesterase inhibitor) of 0.193.

Molecule `CN=C(NC#N)NCCSCc1nc[nH]c1C` has a maximum recommended daily dose (mmol/kg-bw/day) (TherapeuticCategory: antiulcerative) of 0.159.

`COc1cc(NC(C)CCCN)c2ncccc2c1` (configuration not stated) gave a maximum recommended daily dose (mmol/kg-bw/day) (TherapeuticCategory: antimalarial) of 0.00289.

`CCCCc1nc(Cl)c(CO)n1Cc1ccc(-c2ccccc2-c2nn[nH]n2)cc1` gave a maximum recommended daily dose (mmol/kg-bw/day) [2] of 0.00395.

Molecule `Cc1ccc(S(=O)(=O)NC(=O)NC2CCCCC2)cc1N` has a maximum recommended daily dose (mmol/kg-bw/day) (TherapeuticCategory: antidiabetic) of 0.0107.

Molecule `CC1=C(/C=C/C(C)=C/C=C/C(C)=C/C=C/C=C(C)/C=C/C=C(C)/C=C/C2=C(C)C(=O)CCC2(C)C)C(C)(C)CCC1=O` has a maximum recommended daily dose (mmol/kg-bw/day) (TherapeuticCategory: antioxidant) of 0.0443.

`O=C1Nc2ccc(Cl)cc2C(c2ccccc2)=NC1O` (configuration not stated) gave a maximum recommended daily dose (mmol/kg-bw/day) (TherapeuticCategory: anxiolytic) of 0.00698.

In the case of `COc1ccc(NS(=O)(=O)c2ccc(N)cc2)nn1`, the maximum recommended daily dose (mmol/kg-bw/day) [1] is reported as 0.0892.

`CN[C@H]1[C@@H](O)[C@H](O[C@H]2O[C@H]([C@H](C)N)CC[C@H]2N)[C@@H](N)[C@H](O)[C@@H]1OC` gave a maximum recommended daily dose (mmol/kg-bw/day) [1] of 0.0191.

Work on `CC1=NS(=O)(=O)c2cc(Cl)ccc2N1` yielded a maximum recommended daily dose (mmol/kg-bw/day) [2] of 0.0347.

In the case of `CCN(CC)CCOC(=O)C(O)(c1ccccc1)c1ccccc1`, the maximum recommended daily dose (mmol/kg-bw/day) (TherapeuticCategory: antidepressant, anticholinergic) is reported as 0.000458.

With `O=C(CCNNC(=O)c1ccncc1)NCc1ccccc1` the maximum recommended daily dose (mmol/kg-bw/day) (TherapeuticCategory: antidepressant) was 0.0112.

`Cc1cc2c(C(C)C)c(O)c(O)c(C=O)c2c(O)c1-c1c(C)cc2c(C(C)C)c(O)c(O)c(C=O)c2c1O` gave a maximum recommended daily dose (mmol/kg-bw/day) (TherapeuticCategory: none) of 0.000642.

For `NCC1(CC(=O)O)CCCCC1`, the maximum recommended daily dose (mmol/kg-bw/day) (TherapeuticCategory: anticonvulsant) was 0.117.

`CCOC(=O)[C@H](CCc1ccccc1)N[C@@H](C)C(=O)N1[C@H](C(=O)O)C[C@H]2CCCC[C@@H]21` was tested, and the maximum recommended daily dose (mmol/kg-bw/day) [2] was 0.00124.

With `CCC1(c2ccccc2)CCC(=O)NC1=O` (configuration not stated) the maximum recommended daily dose (mmol/kg-bw/day) [3] was 0.0383.

With `CCC(=O)O[C@]1(c2ccccc2)CCN(C)C[C@@H]1C` the maximum recommended daily dose (mmol/kg-bw/day) (TherapeuticCategory: narcotic analgesic) was 0.00191.

Molecule `NC[C@@H]1CC[C@@H](N)[C@@H](O[C@H]2[C@H](O)[C@@H](O[C@H]3O[C@H](CO)[C@@H](O)[C@H](N)[C@H]3O)[C@H](N)C[C@@H]2N)O1` has a maximum recommended daily dose (mmol/kg-bw/day) [1] of 0.00664.

`CN1[C@@H]2CC[C@H]1CC(OC(c1ccccc1)c1ccccc1)C2` (some centres not stated) gave a maximum recommended daily dose (mmol/kg-bw/day) (TherapeuticCategory: anticholinergic) of 0.000325.

Work on `CC(=O)O[C@]1(C(C)=O)CC[C@H]2[C@@H]3C=C(Cl)C4=CC(=O)[C@@H]5C[C@@H]5[C@]4(C)[C@H]3CC[C@@]21C` yielded a maximum recommended daily dose (mmol/kg-bw/day) (TherapeuticCategory: antiandrogen) of 0.012.

Work on `C/C=C\C1=C(C(=O)O)N2C(=O)[C@@H](NC(=O)[C@H](N)c3ccc(O)cc3)[C@H]2SC1` yielded a maximum recommended daily dose (mmol/kg-bw/day) [1] of 0.0429.

For `CCC1(CC)C(=O)NCC(C)C1=O` (configuration not stated), the maximum recommended daily dose (mmol/kg-bw/day) [3] was 0.0364.

For `O=C(c1ccc(OCCN2CCCCC2)cc1)c1c(-c2ccc(O)cc2)sc2cc(O)ccc12`, the maximum recommended daily dose (mmol/kg-bw/day) (TherapeuticCategory: antiosteoporotic, antiestrogen) was 0.0211.

`COc1ccc2c3c1O[C@H]1[C@@H](O)CC[C@H]4[C@@H](C2)N(C)CC[C@@]341` showed a maximum recommended daily dose (mmol/kg-bw/day) [4] of 0.0106.

`COc1c(C)c2c(c(O)c1C/C=C(\C)CCC(=O)OCCN1CCOCC1)C(=O)OC2` gave a maximum recommended daily dose (mmol/kg-bw/day) (TherapeuticCategory: antineoplastic) of 0.277.

With `COc1ccc2c3c1O[C@H]1[C@@H](O)C=C[C@H]4[C@@H](C2)N(C)CC[C@@]341` the maximum recommended daily dose (mmol/kg-bw/day) [4] was 0.02.
